The target in one experiment is GGTase (Homo sapiens, UniProt P49354+P53609). Kind of experiment: GGTase prenylation assay (partially purified GGTase, recombinant H-ras 61 L CAIL, [3H] geranylgeranyl diphosphate). The format is biochemical. The note with it: 5 μM recombinant H-ras (61 L, CAIL), 1 μM [3H] geranylgeranyl diphosphate.
The next experiment deals with FTase (Homo sapiens, UniProt P49354+P49356). The experiment is described as follows: FTase prenylation assay (partially purified FTase, recombinant H-ras, [3H] farnesyl pyrophosphate). The format is biochemical. The note with it: 3 μM recombinant H-ras, 440 nM [3H] FPP, 15 minutes at 37° C.
Experiment [1] concerns H-ras farnesylation in H-ras (61 L) transformed NIH3T3 fibroblasts. The experiment is described as follows: Inhibition of H-ras farnesylation in whole cells (Western blot). The class given is cell-based. Particulars: treated 24 hours. The procedure: The ability of compounds of the invention to inhibit H-ras farnesylation and rapl geranylgeranylation in whole cells was determined. H-ras (61 L) transformed NIH3T3 fibroblasts were generously provided by C. Der, Univ. N. Carolina. These fibroblasts were treated for 24 hours with 50 μM lovastatin (control) or the indicated concentrations of inhibitor. The cells were lysed in 1% NP-40, 5mM Tris-HCl (pH 8.0), 5mM EDTA, 0.1mM N-tosyl-L-phenylalanine chloromethyl ketone, 0.1mM N-tosyl-L-lysine chloromethyl ketone, and 1 mM phenylmethylsulfonyl fluoride. The lysate was centrifuged (15000×g, 5 minutes.) and the supernatant was used as a cell extract. Total protein was separated by SDS-PAGE in 15% acrylamnide gel. After transfer to IMMOBILON P™ membrane (Millipore), the blots were probed with LA069 mouse monoclonal antibody to H-ras (Quality Biotech), or rabbit polyclonal antibody to rap1/Krev (Santa Cruz Biotechnology). All Western blots were developed using ECL chemiluminescent reagents (Amersham).

The test system of experiment [2] is anchorage-independent cell growth. The experiment is described as follows: Soft agar, anchorage-independent cell growth (Table 2). The format is cell-based.
Experiment [3] concerns MIA PaCa-2 cells. The experiment is described as follows: In vivo tumor model, subcutaneous MIA PaCa-2 tumors in nude mice. Details: species or system nude mice (BALB/c-nu/nu). The procedure:
5×10^6 MIA PaCa-2 cells in Hank's balanced salt solution were injected subcutaneously into the flanks of 6 to 8 week old female nude mice (BALB/c-nu/nu) at day 1. […] Compound 10 and paclitaxel were administered intravenously once a day for 5 days from day 6. Tumor volume was measured on the days indicated. Tumor volume was calculated according to the equation: tumor volume (mm^3)=(length×width^2)/2. The results are shown in FIG. 1, where the bars indicated standard deviation. The n value for the assays is 5.

Experiment [4] deals with MIA PaCa-2 cells. Kind of experiment: Anchorage-independent growth of tumor cells in culture, compound 10 and paclitaxel. The format is cell-based. The note with it: for number of colonies: 17 day incubation. The procedure:
4×10^3MIA PaCa-2 cells (ATCC CRL1420) were seeded on 24-well culture plates in 0.2 mL of 0.33 Noble agar in 10% fetal calf serum/RPMI1640 medium over 0.4 mL of 0.66% Noble agar in the same culture medium. The top agar layer was overlayed with 0.2 mL of 0.66% Noble agar in culture medium. The upper agar was covered with 0.2 mL of culture medium containing the indicated concentration of paclitaxel and the indicated concentration of compound 10.
At the end of a 17 day incubation, 0.2 mL of 3.3 mg/mL 3-[4,5-dimethylthiazol-2-yl]-2,5-diphenyltetrazolium bromide in phosphate buffered saline was added and incubated for 1 hour. The number of stained colonies was analyzed with an image analyzer computer program.

Setting [5] is: paclitaxel alone 6.25 mg/kg/day intravenously once a day for 5 days from day 6.

As for `CSCCC(NC(=O)c1cc(CC=CC(N)CS)ccc1C)C(=O)O` (stereo not shown), the IC50 at GGTase was 2.17 µM; on FTase it was 0.001 µM.
Taken in the same sequence, the figures for `CCc1ccc(CC=CC(N)CS)cc1C(=O)NC(CCSC)C(=O)O` (stereo not shown) were 0.42 µM and 0.009 µM.
In the case of `CSCCC(NC(=O)c1cc(CC=CC(N)CS)ccc1C(C)C)C(=O)O` (stereo not shown), the IC50 at GGTase worked out at 0.45 µM; on FTase, 0.023 µM.
For the molecule `CSCCC(NC(=O)c1cc(CCCC(N)CS)ccc1C(C)C)C(=O)O` (stereo not shown), the IC50 amounted to 0.68 µM at GGTase and 0.008 µM on FTase.
As for `COC(=O)C(CCSC)NC(=O)c1cc(CC=CC(N)CS)ccc1C` (stereo not shown), the results for the IC50 at GGTase and on FTase were 1.6 µM and 0.3 µM, respectively.
Taken in the same sequence, the figures for `CCc1ccc(CC=CC(N)CS)cc1C(=O)NC(CCSC)C(=O)OC` (stereo not shown) were 1.84 µM and 0.56 µM.
With `COC(=O)C(CCSC)NC(=O)c1cc(CC=CC(N)CS)ccc1C(C)C` (stereo not shown), the IC50 on GGTase stood at 3.19 µM; on FTase it was 0.08 µM.
As to `COC(=O)C(CCSC)NC(=O)c1cc(CCCC(N)CS)ccc1C(C)C` (stereo not shown), the half-inhibitory concentration (IC50) at GGTase worked out at 4.44 µM; at FTase, 0.073 µM.
Take `CSCCC(NC(=O)c1cc(CCCC(N)CS)ccc1C(C)C)C(=O)NCc1ccco1` (stereo not shown): the IC50 amounted to 4.43 µM on GGTase and 0.067 µM at FTase.
For `CSCC[C@H](NC(=O)c1cc(C/C=C/C(N)CS)ccc1C)C(=O)O` (stereo partly shown), the concentration for half-maximal inhibition (IC50) in experiment [1] came out at 4 µM; in experiment [2] it was 9 µM.
As to `CCc1ccc(C/C=C/C(N)CS)cc1C(=O)N[C@@H](CCSC)C(=O)O` (stereo partly shown), the values for the IC50 in experiment [1] and in experiment [2] were 0.36 µM and 0.95 µM, respectively.
For `CSCC[C@H](NC(=O)c1cc(C/C=C/C(N)CS)ccc1C(C)C)C(=O)O` (stereo partly shown), the results for the concentration for half-maximal inhibition (IC50) in experiment [1] and in experiment [2] were 0.43 µM and 0.16 µM, respectively.
For the molecule `CSCC[C@H](NC(=O)c1cc(CCCC(N)CS)ccc1C(C)C)C(=O)O` (stereo partly shown), the IC50 in experiment [1] came to 0.39 µM; in experiment [2] it was 0.15 µM.
As for `COC(=O)[C@H](CCSC)NC(=O)c1cc(C/C=C/C(N)CS)ccc1C` (stereo partly shown), the IC50 in experiment [1] was 0.12 µM; in experiment [2] it was 0.075 µM.
Take `CCc1ccc(C/C=C/C(N)CS)cc1C(=O)N[C@@H](CCSC)C(=O)OC` (stereo partly shown): the IC50 in experiment [1] was found to be 0.056 µM; in experiment [2] it was 0.013 µM.
With `COC(=O)[C@H](CCSC)NC(=O)c1cc(C/C=C/C(N)CS)ccc1C(C)C` (stereo partly shown), the IC50 is 0.022 µM in experiment [1] and 0.011 µM in experiment [2].
Regarding `COC(=O)[C@H](CCSC)NC(=O)c1cc(CCCC(N)CS)ccc1C(C)C` (stereo partly shown), the IC50 in experiment [1] is 0.028 µM; in experiment [2], 0.019 µM.
Regarding `CSCC[C@H](NC(=O)c1cc(CCCC(N)CS)ccc1C(C)C)C(=O)NCc1ccco1` (stereo partly shown), the IC50 in experiment [1] was found to be 0.2 µM; in experiment [2], 0.3 µM.
Regarding `COC(=O)[C@H](CCSC)NC(=O)c1cc(CCC[C@@H](N)CS)ccc1C(C)C.Cl` [Compound 10], the tumor regression entry in the experiment on MIA PaCa-2 cells [3] (compound 10 25 mg/kg/day plus paclitaxel 6.25 mg/kg/day intravenously once a day for 5 days from day 6, by 20 days after tumor cell implantation) was “all tumors in all mice had completely regressed”. Also, the number of colonies stood at 255 in the experiment on MIA PaCa-2 cells [4] (compound 10 3.13 nM + paclitaxel 0.63 nM); 204 in the experiment on MIA PaCa-2 cells [4] (compound 10 3.13 nM + paclitaxel 1.25 nM); 64 in the experiment on MIA PaCa-2 cells [4] (compound 10 3.13 nM + paclitaxel 2.5 nM); 8 with MIA PaCa-2 cells [4] (compound 10 3.13 nM + paclitaxel 5 nM); 271 in the experiment on MIA PaCa-2 cells [4] (compound 10 3.13 nM, paclitaxel 0 nM); 214 in the experiment on MIA PaCa-2 cells [4] (compound 10 6.25 nM + paclitaxel 0.63 nM). Further, the number of colonies in the experiment on MIA PaCa-2 cells [4] (compound 10 6.25 nM + paclitaxel 1.25 nM) came out at 168; in the experiment on MIA PaCa-2 cells [4] (compound 10 6.25 nM + paclitaxel 2.5 nM), 36; with MIA PaCa-2 cells [4] (compound 10 6.25 nM + paclitaxel 5 nM), 4; in the experiment on MIA PaCa-2 cells [4] (compound 10 6.25 nM, paclitaxel 0 nM) it was 210; with MIA PaCa-2 cells [4] (compound 10 12.5 nM + paclitaxel 0.63 nM), 203; with MIA PaCa-2 cells [4] (compound 10 12.5 nM + paclitaxel 1.25 nM), 148. The number of colonies in the experiment on MIA PaCa-2 cells [4] (compound 10 12.5 nM + paclitaxel 2.5 nM) stood at 22; with MIA PaCa-2 cells [4] (compound 10 12.5 nM + paclitaxel 5 nM) it was 1; in the experiment on MIA PaCa-2 cells [4] (compound 10 12.5 nM, paclitaxel 0 nM), 189; with MIA PaCa-2 cells [4] (compound 10 25 nM + paclitaxel 0.63 nM), 173; in the experiment on MIA PaCa-2 cells [4] (compound 10 25 nM + paclitaxel 1.25 nM) it was 124; in the experiment on MIA PaCa-2 cells [4] (compound 10 25 nM + paclitaxel 2.5 nM), 16. Also, the number of colonies is given as 1 in the experiment on MIA PaCa-2 cells [4] (compound 10 25 nM + paclitaxel 5 nM); 161 in the experiment on MIA PaCa-2 cells [4] (compound 10 25 nM, paclitaxel 0 nM); 119 in the experiment with MIA PaCa-2 cells [4] (compound 10 50 nM + paclitaxel 0.63 nM); 74 with MIA PaCa-2 cells [4] (compound 10 50 nM + paclitaxel 1.25 nM); 0 with MIA PaCa-2 cells [4] (compound 10 50 nM + paclitaxel 2.5 nM); 0 in the experiment with MIA PaCa-2 cells [4] (compound 10 50 nM + paclitaxel 5 nM). Also, the number of colonies stood at 97 in the experiment with MIA PaCa-2 cells [4] (compound 10 50 nM, paclitaxel 0 nM); 72 in the experiment with MIA PaCa-2 cells [4] (compound 10 100 nM + paclitaxel 0.63 nM); 26 with MIA PaCa-2 cells [4] (compound 10 100 nM + paclitaxel 1.25 nM); 0 in the experiment with MIA PaCa-2 cells [4] (compound 10 100 nM + paclitaxel 2.5 nM); 0 with MIA PaCa-2 cells [4] (compound 10 100 nM + paclitaxel 5 nM); 64 in the experiment on MIA PaCa-2 cells [4] (compound 10 100 nM, paclitaxel 0 nM). Besides, the number of colonies is 30 with MIA PaCa-2 cells [4] (compound 10 200 nM + paclitaxel 0.63 nM); 11 in the experiment with MIA PaCa-2 cells [4] (compound 10 200 nM + paclitaxel 1.25 nM); 0 with MIA PaCa-2 cells [4] (compound 10 200 nM + paclitaxel 2.5 nM); 0 in the experiment with MIA PaCa-2 cells [4] (compound 10 200 nM + paclitaxel 5 nM); 23 with MIA PaCa-2 cells [4] (compound 10 200 nM, paclitaxel 0 nM); 6 in the experiment with MIA PaCa-2 cells [4] (compound 10 400 nM + paclitaxel 0.63 nM). Further, the number of colonies in the experiment on MIA PaCa-2 cells [4] (compound 10 400 nM + paclitaxel 1.25 nM) stood at 1; in the experiment with MIA PaCa-2 cells [4] (compound 10 400 nM + paclitaxel 2.5 nM), 0; with MIA PaCa-2 cells [4] (compound 10 400 nM + paclitaxel 5 nM) it was 0; in the experiment with MIA PaCa-2 cells [4] (compound 10 400 nM, paclitaxel 0 nM) it was 3. Further, the interaction with paclitaxel result is recorded as “synergistic” in the experiment with MIA PaCa-2 cells [4] (compound 10 at 3.13 to 200 nM with paclitaxel 2.5 to 5 nM) and “synergistically tumoricidal” in the experiment on MIA PaCa-2 cells [4] (compound 10 at 100 to 200 nM with 1.25 nM paclitaxel).
As for `CC(=O)O[C@H]1C(=O)[C@@]2(C)[C@H]([C@H](OC(=O)c3ccccc3)[C@]3(O)C[C@H](OC(=O)[C@H](O)[C@@H](NC(=O)c4ccccc4)c4ccccc4)C(C)=C1C3(C)C)[C@]1(OC(C)=O)CO[C@@H]1C[C@@H]2O` [Paclitaxel, paclitaxel, reference compound], the tumor growth result in the experiment on MIA PaCa-2 cells [3] (setting [5]) is “inhibited tumor growth”. For the same molecule, the tumor regression entry with MIA PaCa-2 cells [3] (setting [5]) was “no tumor regression ever occurred”. For the same molecule, the number of colonies in the experiment with MIA PaCa-2 cells [4] (paclitaxel 0.63 nM, compound 10 0 nM) turned out to be 235; in the experiment with MIA PaCa-2 cells [4] (paclitaxel 1.25 nM, compound 10 0 nM), 234; in the experiment with MIA PaCa-2 cells [4] (paclitaxel 2.5 nM, compound 10 0 nM), 172; in the experiment on MIA PaCa-2 cells [4] (paclitaxel 5 nM, compound 10 0 nM) it was 48.

Broadly, the IC50 is the concentration at which inhibition is half-maximal.

For the origin of these results see patent publication US6486202B1, “Inhibitors of isoprenyl transferase” (Eisai Company, Limited, priority 2001, dated 2002).
